Experimental data published in US20060079453A1, “Hla binding peptides and their uses” (priority 2002, published 2006).
No end group written: not given here.

Legend:
Experiment in all cases: biochemical
Type in all cases: binding
[1] = biological target: HLA-DR DRB1*1302 (DR13) (Homo sapiens, UniProt P01903+P01911, A100E/A169T/K41T/L162R/M171V/P40S/Q125H/Q178H/Q39Y/Q99D/R42S/S66N/T262R/V115G/W38E/Y61H); details: DRBI *1302
[2] = biological target: HLA-DR DRB4*0101 (DR53) (Homo sapiens, UniProt P01903+P13762, G164S); details: DRB4 *0101
[3] = biological target: HLA-DR DRB1*0802 (DR8) (Homo sapiens, UniProt P01903+P01911, A100R/A103L/A169T/F76Y/H45Y/I96F/K41T/L162R/M171V/P40S/Q125H/Q178H/Q39Y/Q99D/R218S/R42G/S66Y/V115G/W38E)
[4] = biological target: HLA-DR DRB1*0401 (DR4) (Homo sapiens, UniProt P01903+P01911, A100K/A169T/F76Y/I96L/K127E/L162R/M171V/N62H/P40V/Q125Y/R42H/S133A/S149N/S66Y/V115G/V209L/W38E); details: DRB1 *0401
[5] = biological target: HLA-DR DRB1*0701 (DR7) (Homo sapiens, UniProt P01903+P01911, A100R/A102G/A103Q/D57E/D86V/E43K/F76Y/K127E/L162R/M171V/P40G/Q125H/Q99D/R33Q/R42Y/R54Q/S133A/S66F/T210M/V115G/Y107V/Y59L/Y89S); details: DRB1 *0701
[6] = biological target: HLA-DR DRB1*1101 (DR11) (Homo sapiens, UniProt P01903+P01911, A100R/A169T/A87E/I96F/K41T/L162R/M171V/P40S/Q125H/Q178H/Q39Y/Q99D/R42S/S66Y/T262R/V115G/W38E); details: DRB1 *1101
[7] = biological target: HLA-DR DRB1*0901 (DR9) (Homo sapiens, UniProt P01903+P01911, A100R/A103E/D57H/D86V/F55Y/F60I/F76Y/I96F/K127E/L162R/M171V/P40D/Q125H/Q99R/R33Q/R42F/S133A/S66N/T210M/V115G/W38K/Y107V/Y59G/Y89S); details: DRB1 *0901
[8] = biological target: HLA-DR DRB1*0101 (DR1) (Homo sapiens, UniProt P01903+P01911, A100R/D57E/F55L/F60I/F76Y/I96L/L162R/M171V/P40L/Q125E/R42F/V115G/Y59C); details: DRB1 *0101
[9] = biological target: HLA-DR DRB3*0101 (DR52) (Homo sapiens, UniProt P01903+P79483)
[10] = biological target: HLA-DR DRB1*1501 (DR15) (Homo sapiens, UniProt P01903+P01911); details: DRBI *1501
[11] = biological target: HLA-DR DRB5*0101 (DR51) (Homo sapiens, UniProt P01903+Q30154); details: DRB5 *0101

Chain of HLA-DR DRB1*1101 (DR11) (P01903 26-254 limits assumed, other chains not shown): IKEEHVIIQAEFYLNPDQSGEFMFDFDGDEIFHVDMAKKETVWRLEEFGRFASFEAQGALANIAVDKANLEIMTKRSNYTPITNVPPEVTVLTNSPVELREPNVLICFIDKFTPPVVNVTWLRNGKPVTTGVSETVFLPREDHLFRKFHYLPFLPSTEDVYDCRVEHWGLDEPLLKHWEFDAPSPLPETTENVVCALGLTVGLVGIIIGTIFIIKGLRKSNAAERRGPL
Chain of HLA-DR DRB1*1302 (DR13) (P01903 26-254 limits assumed, other chains not shown): as above

Compound | IC50 [1] | IC50 [2] | IC50 [3] | IC50 [4] | IC50 [5] | IC50 [6] | IC50 [7] | IC50 [8] | IC50 [9] | IC50 [10] | IC50 [11]
CC[C@H](C)[C@H](NC(=O)[C@H](CO)NC(=O)[C@H](CC(C)C)NC(=O)[C@@H](NC(=O)[C@H](CC(C)C)NC(=O)[C@@H](N)CC(=O)O)C(C)C)C(=O)N[C@@H](C)C(=O)N[C@@H](CC(C)C)C(=O)N[C@@H](CO)C(=O)N[C@H](C(=O)NCC(=O)N[C@@H](CS)C(=O)N[C@H](C(=O)NCC(=O)N[C@@H](C)C(=O)O)[C@@H](C)O)C(C)C | 0.098 µM | 459 nM | > 245 µM | 13 µM | 4.03 µM | > 200 µM | 2.2 µM | 1200 nM | > 14.9 µM | 18.2 µM | > 100 µM
CC[C@H](C)[C@H](NC(=O)[C@H](CO)NC(=O)[C@H](CO)NC(=O)[C@H](CC(=O)O)NC(=O)[C@H](C)NC(=O)[C@H](CC(N)=O)NC(=O)[C@@H](NC(=O)[C@H](Cc1ccc(O)cc1)NC(=O)[C@H](C)NC(=O)[C@@H](NC(=O)CNC(=O)[C@H](CCCNC(=N)N)NC(=O)[C@@H](N)CCC(=O)O)C(C)C)[C@@H](C)CC)C(=O)N[C@@H](CCC(=O)O)C(=O)NCC(=O)O | 3.69 µM | 87 nM | > 163 µM | 6.76 µM | 34 µM | > 50 µM | 25.5 µM | 2440 nM | 6.85 µM | 30.3 µM | ≥ 200 µM
CC[C@H](C)[C@H](NC(=O)CNC(=O)[C@H](CCCNC(=N)N)NC(=O)[C@H](CCCNC(=N)N)NC(=O)[C@H](Cc1ccc(O)cc1)NC(=O)[C@H](C)NC(=O)[C@H](Cc1ccc(O)cc1)NC(=O)[C@@H](N)CCC(=O)O)C(=O)N[C@@H](C)C(=O)N[C@@H](CCC(=O)O)C(=O)N[C@@H](C)C(=O)N[C@H](C(=O)NCC(=O)N[C@@H](CC(C)C)C(=O)N1CCC[C@H]1C(=O)O)C(C)C | 5.22 µM | 6320 nM | 0.596 µM | 0.213 µM | 0.07 µM | 2.59 µM | 0.067 µM | 5.1 nM | 8.77 µM | > 45.5 µM | 1.2 µM
CC[C@H](C)[C@H](NC(=O)CNC(=O)[C@H](CCC(N)=O)NC(=O)[C@H](CC(C)C)NC(=O)[C@@H](NC(=O)CNC(=O)[C@H](CC(N)=O)NC(=O)[C@H](CS)NC(=O)[C@@H](NC(=O)[C@H](CC(C)C)NC(=O)[C@@H]1CCCN1C(=O)CNC(=O)CN)C(C)C)C(C)C)C(=O)N[C@H](C(=O)N[C@@H](CO)C(=O)O)[C@@H](C)O | 0.036 µM | 815 nM | 9.33 µM | 0.068 µM | > 35.7 µM | 1.83 µM | 16.3 µM | 3350 nM | > 6.57 µM | 30.3 µM | 13.4 µM
CC[C@H](C)[C@H](NC(=O)[C@H](CS)NC(=O)[C@H](Cc1c[nH]cn1)NC(=O)[C@H](C)NC(=O)[C@H](C)NC(=O)[C@@H](NC(=O)[C@H](CC(C)C)NC(=O)[C@@H](NC(=O)[C@H](Cc1c[nH]c2ccccc12)NC(=O)[C@@H](N)CCC(N)=O)C(C)C)[C@@H](C)O)C(=O)N[C@@H](CCCNC(=N)N)C(=O)N[C@@H](CC(N)=O)C(=O)N[C@@H](CCCCN)C(=O)N[C@@H](CO)C(=O)N[C@H](C(=O)O)C(C)C | 2.06 µM | 3800 nM | 2.6 µM | 19.4 µM | 0.214 µM | 2.17 µM | 0.967 µM | 50 nM | 7.34 µM | 13.6 µM | 0.035 µM
CSCC[C@H](NC(=O)[C@@H](NC(=O)[C@H](CCCCN)NC(=O)[C@@H](NC(=O)[C@H](C)NC(=O)[C@H](CC(=O)O)NC(=O)[C@@H](N)[C@@H](C)O)C(C)C)C(C)C)C(=O)N[C@@H](CC(=O)O)C(=O)N[C@@H](CC(C)C)C(=O)N1CCC[C@H]1C(=O)N[C@H](C(=O)N[C@@H](CCC(N)=O)C(=O)N[C@@H](CCC(=O)O)C(=O)N1CCC[C@H]1C(=O)N[C@@H](C)C(=O)O)[C@@H](C)O | > 35 µM | 747 nM | 20.9 µM | > 80 µM | > 41.7 µM | > 50 µM | > 107 µM | > 50000 nM | > 13.5 µM | > 45.5 µM | > 200 µM
CC[C@H](C)[C@H](NC(=O)[C@@H]1CCCN1C(=O)[C@H](CCC(N)=O)NC(=O)[C@@H](N)Cc1c[nH]c2ccccc12)C(=O)N1CCC[C@H]1C(=O)N[C@H](C(=O)N[C@@H](Cc1c[nH]cn1)C(=O)N[C@H](C(=O)N[C@H](C(=O)N1CCC[C@H]1C(=O)N[C@@H](CC(C)C)C(=O)N[C@@H](CO)C(=O)N[C@@H](CCC(=O)O)C(=O)N[C@@H](CC(=O)O)C(=O)N[C@@H](CCC(N)=O)C(=O)O)C(C)C)[C@@H](C)O)C(C)C | 2.69 µM | 1230 nM | > 81.7 µM | > 26.7 µM | 0.159 µM | > 66.7 µM | 17.5 µM | 6390 nM | > 8.83 µM | > 45.5 µM | > 100 µM
CC(C)C[C@H](NC(=O)CNC(=O)[C@H](CC(N)=O)NC(=O)[C@@H](N)Cc1ccc(O)cc1)C(=O)N[C@@H](CC(C)C)C(=O)N1CCC[C@H]1C(=O)N1CCC[C@H]1C(=O)N[C@@H](Cc1ccc(O)cc1)C(=O)N[C@@H](C)C(=O)N[C@@H](CO)C(=O)N[C@@H](CS)C(=O)N[C@@H](Cc1c[nH]cn1)C(=O)N[C@@H](CC(C)C)C(=O)N[C@H](C(=O)N[C@@H](CCC(=O)O)C(=O)O)[C@@H](C)O | 11.7 µM | > 10900 nM | 14 µM | 6.19 µM | > 83.3 µM | 5.3 µM | 8.02 µM | 42 nM | > 15 µM | 0.252 µM | ≥ 100 µM
GRAVCGGVLVHPQWV | 5.46 µM | 62 nM | > 245 µM | > 26.7 µM | 3.58 µM | > 50 µM | 8.07 µM | 386 nM | > 12.1 µM | 12.9 µM | ≥ 100 µM
KSRLQGGVLVNEILN | 0.318 µM | 713 nM | > 81.7 µM | > 26.7 µM | 2.84 µM | > 66.7 µM | 5.52 µM | 362 nM | > 15 µM | > 30.3 µM | > 100 µM
NGVLQGITSWGPEPC | > 17.5 µM | 5760 nM | 52.2 µM | 8.43 µM | 2.29 µM | 32.4 µM | 50.1 µM | 1090 nM | > 14.4 µM | 0.835 µM | > 100 µM
PEEFLRPRSLQCVSL | 11.7 µM | 117 nM | 2.21 µM | > 26.7 µM | 5.16 µM | 10.7 µM | 5.84 µM | 2000 nM | > 14.4 µM | 3.19 µM | 57.5 µM
PHPLYNMSLLKHQSL | 3.31 µM | 49 nM | 3.31 µM | 0.819 µM | 20.7 µM | 6.46 µM | 1.59 µM | 19100 nM | > 14.9 µM | 3.87 µM | 1.9 µM
SLSLGFLFLLFFWLD | 0.639 µM | > 11000 nM | > 123 µM | 4.71 µM | 22.7 µM | 100 µM | 24.6 µM | 11400 nM | 3.71 µM | 11.4 µM | 66.7 µM
